Where two headings read alike, the source gives them in different places.
Experiments:
CK1d = biological target: T1, CK1d (Homo sapiens, UniProt P48730); assay: Kinase activity test (ReactionBiology), % enzyme activity relative to DMSO; assay type: biochemical; settings: CK1d
T1 construct: purchased ReactionBiology

VEGFR2 = VEGFR2 (Homo sapiens, UniProt P35968); assay: as above; assay type: biochemical; design: purchased ReactionBiology; settings: VEGFR2;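 also: VEGFR2 was one member of a ten-kinase screening panel testing marketed FDA-approved drugs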
[1] = 1 uM, Average, read-out: % Enzyme Activity (relative to DMSO controls), Average
[2] = 1 uM, replicate Data 1, read-out: % Enzyme Activity (relative to DMSO controls), Data 1
[3] = 1 uM, replicate Data 2, read-out: % Enzyme Activity (relative to DMSO controls), Data 2
[4] = 10 uM, Average, read-out: % Enzyme Activity (relative to DMSO controls), Average
[5] = 10 uM, replicate Data 1, read-out: % Enzyme Activity (relative to DMSO controls), Data 1
[6] = 10 uM, replicate Data 2, read-out: % Enzyme Activity (relative to DMSO controls), Data 2

T1 sequence (P48730 whole entry): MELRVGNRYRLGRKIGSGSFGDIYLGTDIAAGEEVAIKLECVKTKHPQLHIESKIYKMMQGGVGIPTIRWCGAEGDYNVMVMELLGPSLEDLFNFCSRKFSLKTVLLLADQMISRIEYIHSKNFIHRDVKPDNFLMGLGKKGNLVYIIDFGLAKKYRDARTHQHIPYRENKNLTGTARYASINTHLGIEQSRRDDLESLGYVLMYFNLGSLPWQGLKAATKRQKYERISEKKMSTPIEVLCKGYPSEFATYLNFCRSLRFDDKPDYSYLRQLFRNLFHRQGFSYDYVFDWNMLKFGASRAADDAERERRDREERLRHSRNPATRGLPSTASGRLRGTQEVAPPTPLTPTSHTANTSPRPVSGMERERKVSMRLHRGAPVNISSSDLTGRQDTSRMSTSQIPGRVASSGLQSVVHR
Chain of VEGFR2 (P35968 20-1356): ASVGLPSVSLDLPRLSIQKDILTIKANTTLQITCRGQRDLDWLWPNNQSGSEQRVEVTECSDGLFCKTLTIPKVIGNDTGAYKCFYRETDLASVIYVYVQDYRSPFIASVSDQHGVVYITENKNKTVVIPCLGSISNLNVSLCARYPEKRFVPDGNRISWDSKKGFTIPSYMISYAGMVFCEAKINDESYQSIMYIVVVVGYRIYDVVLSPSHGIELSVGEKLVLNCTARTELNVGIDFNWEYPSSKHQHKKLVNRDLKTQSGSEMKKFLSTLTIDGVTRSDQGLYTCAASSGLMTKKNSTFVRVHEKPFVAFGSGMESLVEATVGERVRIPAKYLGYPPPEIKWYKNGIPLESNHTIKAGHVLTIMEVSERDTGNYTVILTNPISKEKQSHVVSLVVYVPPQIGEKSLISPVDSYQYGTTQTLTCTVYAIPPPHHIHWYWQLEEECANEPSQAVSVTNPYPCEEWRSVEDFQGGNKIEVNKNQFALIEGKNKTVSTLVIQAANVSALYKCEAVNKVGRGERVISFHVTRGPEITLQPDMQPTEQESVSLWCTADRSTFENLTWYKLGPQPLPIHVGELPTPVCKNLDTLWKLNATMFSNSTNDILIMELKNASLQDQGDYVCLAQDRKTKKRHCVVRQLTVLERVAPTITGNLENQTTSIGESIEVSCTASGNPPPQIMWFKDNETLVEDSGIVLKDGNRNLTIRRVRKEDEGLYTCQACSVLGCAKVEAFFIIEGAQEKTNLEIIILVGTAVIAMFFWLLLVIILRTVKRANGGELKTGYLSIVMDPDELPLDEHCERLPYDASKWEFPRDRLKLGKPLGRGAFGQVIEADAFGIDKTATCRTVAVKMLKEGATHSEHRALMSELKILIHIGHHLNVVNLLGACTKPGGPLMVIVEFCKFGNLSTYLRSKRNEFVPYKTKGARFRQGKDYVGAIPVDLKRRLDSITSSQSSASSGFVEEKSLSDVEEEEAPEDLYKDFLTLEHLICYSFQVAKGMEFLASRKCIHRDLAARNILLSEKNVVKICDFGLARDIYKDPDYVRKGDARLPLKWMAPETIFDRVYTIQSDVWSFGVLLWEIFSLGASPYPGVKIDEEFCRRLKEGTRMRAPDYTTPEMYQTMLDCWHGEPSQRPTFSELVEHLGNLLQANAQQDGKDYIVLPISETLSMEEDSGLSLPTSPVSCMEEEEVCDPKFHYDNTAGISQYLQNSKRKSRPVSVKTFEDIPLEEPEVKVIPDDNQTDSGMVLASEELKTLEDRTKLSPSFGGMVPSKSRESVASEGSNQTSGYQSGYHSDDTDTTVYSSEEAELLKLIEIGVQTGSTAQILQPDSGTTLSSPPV

Row | SMILES | % Enzyme Activity (relative to DMSO controls), Average (CK1d; 1 uM, Average) [%] | % Enzyme Activity (relative to DMSO controls), Average (VEGFR2; 1 uM, Average) [%] | % Enzyme Activity (relative to DMSO controls), Data 1 (VEGFR2; 1 uM, replicate Data 1) [%] | % Enzyme Activity (relative to DMSO controls), Data 2 (VEGFR2; 1 uM, replicate Data 2) [%] | % Enzyme Activity (relative to DMSO controls), Average (VEGFR2; 10 uM, Average) [%] | % Enzyme Activity (relative to DMSO controls), Data 1 (VEGFR2; 10 uM, replicate Data 1) [%] | % Enzyme Activity (relative to DMSO controls), Data 2 (VEGFR2; 10 uM, replicate Data 2) [%] | % Enzyme Activity (relative to DMSO controls), Data 1 (CK1d; 1 uM, replicate Data 1) [%] | % Enzyme Activity (relative to DMSO controls), Data 2 (CK1d; 1 uM, replicate Data 2) [%] | % Enzyme Activity (relative to DMSO controls), Average (CK1d; 10 uM, Average) [%] | % Enzyme Activity (relative to DMSO controls), Data 1 (CK1d; 10 uM, replicate Data 1) [%] | % Enzyme Activity (relative to DMSO controls), Data 2 (CK1d; 10 uM, replicate Data 2) [%] | other results
1 | CC(C)(Oc1ccc(CCNC(=O)c2ccc(Cl)cc2)cc1)C(=O)O [Bezafibrate] |  | 106.10 | 100.57 | 111.63 | 106.53 | 106.16 | 106.89 |  |  |  |  |  | 
2 | C[C@]12CC[C@@H]3c4ccc(O)cc4CC[C@H]3[C@@H]1CCC2=O [Estrone] |  | 106.40 | 108.92 | 103.87 | 104.79 | 105.29 | 104.29 |  |  |  |  |  | 
3 | COc1ccc2c(c1)c(CC(=O)O)c(C)n2C(=O)c1ccc(Cl)cc1 [Iomethacin] | 102.15 | 105.43 | 105.61 | 105.25 | 102.46 | 106.14 | 98.78 | 102.08 | 102.21 | 95.39 | 98.78 | 92 | 
4 | CCCCC[C@H](O)/C=C/[C@H]1[C@H](O)CC(=O)[C@@H]1CCCCCCC(=O)O [Alprostadil] | 100.17 |  |  |  |  |  |  | 100.59 | 99.74 | 106.64 | 108.06 | 105.21 | 
5 | CC(=O)[C@]1(O)Cc2c(O)c3c(c(O)c2[C@@H](O[C@H]2C[C@H](N)[C@H](O)[C@H](C)O2)C1)C(=O)c1ccccc1C3=O [Idarubicin] |  | 111.69 | 111.85 | 111.52 | 106.65 | 105.86 | 107.43 |  |  |  |  |  | 
6 | Cc1ccc(C(=O)c2cc(O)c(O)c([N+](=O)[O-])c2)cc1 [Tolcapone, reference compound] |  |  |  |  |  |  |  |  |  |  |  |  | remaining activity at 1 µM (CK1d; [1]): 91.7%; remaining activity at 1 µM (CK1d; [2]): 91.5%; remaining activity at 1 µM (CK1d; [3]): 91.9%; remaining activity at 10 µM (CK1d; [4]): 35.6%; remaining activity at 10 µM (CK1d; [5]): 33.2%; remaining activity at 10 µM (CK1d; [6]): 38%; remaining activity at 1 µM (CK1d; compound 1μM, relative to DMSO controls, read-out: % Enzyme activity at 1μM): 91.7%; remaining activity at 10 µM (CK1d; compound 10μM, relative to DMSO controls, read-out: % Enzyme activity at 10μM): 35.6%
7 | CCCCNc1ccc(C(=O)OCCN(C)C)cc1 [Tetracaine] | 110.04 |  |  |  |  |  |  | 103.65 | 116.43 | 118.78 | 119.29 | 118.26 | 
8 | O=c1[nH]cc(F)c(=O)[nH]1 [Fluorouracil] | 104.91 | 113.72 | 118.24 | 109.2 | 105.92 | 109.47 | 102.36 | 106.12 | 103.69 | 106.01 | 110.21 | 101.8 | 
9 | CO[C@@]12[C@H](COC(N)=O)C3=C(C(=O)C(C)=C(N)C3=O)N1C[C@@H]1N[C@@H]12 [Mitomycin] | 98.48 |  |  |  |  |  |  | 100.68 | 96.28 | 158.59 | 209.38 | 107.8 | 
10 | COc1cccc2c1C(=O)c1c(O)c3c(c(O)c1C2=O)C[C@@](O)(C(=O)CO)C[C@@H]3O[C@H]1C[C@H](N)[C@H](O)[C@H](C)O1 [Doxorubicin] |  | 110.51 | 112.09 | 108.92 | 100.16 | 99.85 | 100.47 |  |  |  |  |  | 
11 | CC1=Nc2ccc(Cl)cc2S(=O)(=O)N1 [Diazoxide] | 95.10 |  |  |  |  |  |  | 99.58 | 90.62 | 97.15 | 96.56 | 97.73 | 
12 | CNCCCN1c2ccccc2CCc2ccccc21 [Desipramine] |  | 96.96 |  |  | 89.29 |  |  |  |  | 133.63 |  |  | 
13 | CS(=O)(=O)c1ccc(C(=O)Nc2ccc(Cl)c(-c3ccccn3)c2)c(Cl)c1 [Vismodegib] |  |  |  |  |  |  |  |  |  |  |  |  | remaining activity at 1 µM (VEGFR2; [1]): 103%; remaining activity at 1 µM (VEGFR2; [2]): 103%; remaining activity at 1 µM (VEGFR2; [3]): 103%; remaining activity at 10 µM (VEGFR2; [4]): 91.1%; remaining activity at 10 µM (VEGFR2; [5]): 97.8%; remaining activity at 10 µM (VEGFR2; [6]): 84.5%
14 | CCCc1nc(C)c2c(=O)[nH]c(-c3cc(S(=O)(=O)N4CCN(CC)CC4)ccc3OCC)nn12 [Vardenafil] |  |  |  |  |  |  |  |  |  |  |  |  | remaining activity at 1 µM (CK1d; [1]): 102%; remaining activity at 1 µM (CK1d; [2]): 100%; remaining activity at 1 µM (CK1d; [3]): 104%; remaining activity at 10 µM (CK1d; [4]): 110%; remaining activity at 10 µM (CK1d; [5]): 107%; remaining activity at 10 µM (CK1d; [6]): 112%
15 | CC1(C)S[C@@H]2[C@H](NC(=O)[C@H](N)c3ccccc3)C(=O)N2[C@H]1C(=O)O [Ampicillin] |  | 99.13 | 103.06 | 95.2 | 96.01 | 95.11 | 96.91 |  |  |  |  |  | 

Second part, led by results:

Row | % Enzyme Activity (relative to DMSO controls), Average (CK1d; 1 uM, Average) [%] | % Enzyme Activity (relative to DMSO controls), Average (VEGFR2; 1 uM, Average) [%] | % Enzyme Activity (relative to DMSO controls), Data 1 (VEGFR2; 1 uM, replicate Data 1) [%] | % Enzyme Activity (relative to DMSO controls), Data 2 (VEGFR2; 1 uM, replicate Data 2) [%] | % Enzyme Activity (relative to DMSO controls), Average (VEGFR2; 10 uM, Average) [%] | % Enzyme Activity (relative to DMSO controls), Data 1 (VEGFR2; 10 uM, replicate Data 1) [%] | % Enzyme Activity (relative to DMSO controls), Data 2 (VEGFR2; 10 uM, replicate Data 2) [%] | % Enzyme Activity (relative to DMSO controls), Data 1 (CK1d; 1 uM, replicate Data 1) [%] | % Enzyme Activity (relative to DMSO controls), Data 2 (CK1d; 1 uM, replicate Data 2) [%] | % Enzyme Activity (relative to DMSO controls), Average (CK1d; 10 uM, Average) [%] | % Enzyme Activity (relative to DMSO controls), Data 1 (CK1d; 10 uM, replicate Data 1) [%] | % Enzyme Activity (relative to DMSO controls), Data 2 (CK1d; 10 uM, replicate Data 2) [%] | SMILES | other results
16 | 107.55 |  |  |  |  |  |  |  |  |  |  |  | CC(C)CN(C[C@@H](O)[C@H](Cc1ccccc1)NC(=O)O[C@H]1CCOC1)S(=O)(=O)c1ccc(N)cc1 [Amprenavir] | 
17 | 106.25 |  |  |  |  |  |  | 107.91 | 104.59 | 89.28 | 92.55 | 86 | CCC1=C(C)CN(C(=O)NCCc2ccc(S(=O)(=O)NC(=O)N[C@H]3CC[C@H](C)CC3)cc2)C1=O [Glimepiride] | 
18 | 103.78 | 102.42 | 103.18 | 101.65 | 97.95 | 98.92 | 96.97 | 105.89 | 101.67 | 108.37 | 107.23 | 109.5 | CN1CC(=O)N2[C@H](c3ccc4c(c3)OCO4)c3[nH]c4ccccc4c3C[C@@H]2C1=O [Tadalafil] | 
19 |  |  |  |  |  |  |  |  |  | 101.06 |  |  | CC(C)Nc1cccnc1N1CCN(C(=O)c2cc3cc(NS(C)(=O)=O)ccc3[nH]2)CC1 [Delavirdine] | 
20 |  | 110.86 | 108.92 | 112.79 | 104.24 | 106.32 | 102.16 |  |  |  |  |  | Cn1c(=O)cc(N2CCC[C@@H](N)C2)n(Cc2ccccc2C#N)c1=O [Alogliptin] | 

From PMC7252619 (PLoS ONE, 2020)
